# Test results reported in PubChem BioAssay (NCI).
#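 Assay format: 96-well plates, 48-hour exposure. GI50 marks 50% less growth. TGI marks complete inhibition of growth.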
# Experiments:
# Assay in all cases: inhibition of tumour cell growth, NCI panel, 48 h
# [1] = system: SK-MEL-5 melanoma
# [2] = system: SNB-19 CNS
# [3] = system: SK-OV-3 ovarian
# [4] = system: MDA-MB-435
# [5] = system: OVCAR-5 ovarian
# [6] = system: UACC-62 melanoma
# [7] = system: T-47D breast
# [8] = system: OVCAR-4 ovarian
# [9] = system: NCI-H460 lung
# [10] = system: MDA-MB-231 breast
# [11] = system: A498 renal
# [12] = system: HL-60(TB) leukemia
# [13] = system: SF-539 CNS
# [14] = system: NCI-H23 lung
# [15] = system: SW-620 colon
# [16] = system: PC-3 prostate
# [17] = system: SK-MEL-2 melanoma
# [18] = system: SK-MEL-28 melanoma
# [19] = system: CCRF-CEM leukemia
# [20] = system: UO-31 renal
# [21] = system: 786-0 renal
# [22] = system: HCC-2998 colon
# [23] = system: CAKI-1 renal
# [24] = system: KM12 colon
# [25] = system: HCT-15 colon
# [26] = system: TK-10 renal
# [27] = system: A549 NSCLC
# [28] = system: OVCAR-8 ovarian
# [29] = system: MCF7 breast
# [30] = system: RXF 393 renal
# [31] = system: UACC-257 melanoma
# [32] = system: K-562 leukemia
# [33] = system: HOP-92 NSCLC
# [34] = system: SF-295 CNS
# [35] = system: SR leukemia
# [36] = system: DU-145 prostate
# [37] = system: NCI-H226 lung
# [38] = system: ACHN renal
# [39] = system: IGROV1 ovarian
# [40] = system: NCI/ADR-RES ovarian
# [41] = system: MOLT-4 leukemia
# [42] = system: HOP-62 NSCLC
# [43] = system: SF-268 CNS
# [44] = system: RPMI-8226 leukemia
# [45] = system: M14 melanoma
# [46] = system: COLO 205 colon
# [47] = system: MALME-3M melanoma
# [48] = system: HT29 colon
# [49] = system: BT-549 breast
# [50] = system: SNB-75 CNS
# [51] = system: SN12C renal
# [52] = system: HS 578T breast
structure (smiles),measurement,setting,value
Cc1cc2nc(C(Cl)Cl)nc(-c3cccs3)n2n1,GI50,[1],9.61 µM
same,TGI,[1],> 100 µM
same,GI50,[2],1.18 µM
same,TGI,[2],5.99 µM
same,GI50,[3],2.15 µM
same,TGI,[3],6.51 µM
same,GI50,[4],1.86 µM
same,TGI,[4],3.81 µM
same,GI50,[5],1.93 µM
same,TGI,[5],5.73 µM
same,GI50,[6],3 µM
same,TGI,[6],> 100 µM
same,GI50,[7],1.4 µM
same,TGI,[7],7.66 µM
same,GI50,[8],2.12 µM
same,TGI,[8],4.74 µM
same,GI50,[9],0.333 µM
same,TGI,[9],1.57 µM
same,GI50,[10],1.55 µM
same,TGI,[10],4.43 µM
same,GI50,[11],1.2 µM
same,TGI,[11],2.66 µM
same,GI50,[12],0.346 µM
same,TGI,[12],2.39 µM
same,GI50,[13],2.27 µM
same,TGI,[13],7.49 µM
same,GI50,[14],0.953 µM
same,TGI,[14],2.96 µM
same,GI50,[15],1.38 µM
same,TGI,[15],8.1 µM
same,GI50,[16],1.41 µM
same,TGI,[16],4.32 µM
same,GI50,[17],3.05 µM
same,TGI,[17],> 100 µM
same,GI50,[18],1.83 µM
same,TGI,[18],3.63 µM
same,GI50,[19],4.22 µM
same,TGI,[19],> 100 µM
same,GI50,[20],1.67 µM
same,TGI,[20],5.14 µM
same,GI50,[21],4.7 µM
same,TGI,[21],> 100 µM
same,GI50,[22],0.514 µM
same,TGI,[22],1.91 µM
same,GI50,[23],1.66 µM
same,TGI,[23],5.97 µM
same,GI50,[24],2.02 µM
same,TGI,[24],4.51 µM
same,GI50,[25],1.2 µM
same,TGI,[25],4.03 µM
same,GI50,[26],2.11 µM
same,TGI,[26],5.92 µM
same,GI50,[27],0.374 µM
same,TGI,[27],3.51 µM
same,GI50,[28],1.27 µM
same,TGI,[28],> 100 µM
same,GI50,[29],0.705 µM
same,TGI,[29],> 100 µM
same,GI50,[30],0.838 µM
same,TGI,[30],2.23 µM
same,GI50,[31],1.87 µM
same,TGI,[31],4.55 µM
same,GI50,[32],2.54 µM
same,TGI,[32],> 100 µM
same,GI50,[33],1.41 µM
same,TGI,[33],3.92 µM
same,GI50,[34],1.27 µM
same,TGI,[34],5.8 µM
same,GI50,[35],1.43 µM
same,TGI,[35],> 100 µM
same,GI50,[36],0.289 µM
same,TGI,[36],0.858 µM
same,GI50,[37],> 100 µM
same,TGI,[37],> 100 µM
same,GI50,[38],0.366 µM
same,TGI,[38],2.44 µM
same,GI50,[39],2.43 µM
same,TGI,[39],> 100 µM
same,GI50,[40],1.26 µM
same,TGI,[40],4.72 µM
same,GI50,[41],1.48 µM
same,TGI,[41],> 100 µM
same,GI50,[42],0.938 µM
same,TGI,[42],4.43 µM
same,GI50,[43],1.98 µM
same,TGI,[43],7.27 µM
same,GI50,[44],1.4 µM
same,TGI,[44],5.47 µM
same,GI50,[45],2.1 µM
same,TGI,[45],4.99 µM
same,GI50,[46],0.942 µM
same,TGI,[46],3.29 µM
same,GI50,[47],2.21 µM
same,TGI,[47],5.31 µM
same,GI50,[48],0.496 µM
same,TGI,[48],2.19 µM
same,GI50,[49],7.67 µM
same,TGI,[49],> 100 µM
same,GI50,[50],0.702 µM
same,TGI,[50],2.94 µM
same,GI50,[51],> 100 µM
same,TGI,[51],> 100 µM
same,GI50,[52],1.93 µM
same,TGI,[52],6.21 µM
